Values after ≈ are worked out from the molar mass of the structure shown.
Experiments:
[1] = target: VIM-1 (Veronese metallo-β-lactamase-1) (Pseudomonas aeruginosa, UniProt A0A0F7KYQ8); test: Metallo-β-lactamase enzyme inhibition, standard assay protocol
[2] = target: NDM-1 (New Delhi metallo-β-lactamase-1) (Klebsiella pneumoniae, UniProt C7C422); test: as above
IMP-1 (Imipenemase-1) = IMP-1 (Imipenemase-1) (Serratia marcescens, UniProt P52699); test: as above
[3] = target: VIM-2 (Veronese metallo-β-lactamase-2) (Escherichia coli, UniProt Q5U7L7); test: as above
E. coli VIM-1 = test: Meropenem MIC, CLSI broth or agar microdilution, strain entry 3; type: cell-based; settings: for Change in MIC value of meropenem: strain entry 3, E. coli VIM-1
Text: (§1) In each case DMSO was used to dissolve inhibitors.

E. coli IMP-4 = test: Meropenem MIC, CLSI broth or agar microdilution, strain entry 2; type: cell-based
[4] = test system: Klebsiella pneumoniae VIM-1; test: Meropenem MIC, CLSI broth or agar microdilution, strain entry 4; type: cell-based
[5] = test system: Klebsiella pneumoniae NDM-1; test: Meropenem MIC, CLSI broth or agar microdilution, strain entry 6; type: cell-based; settings: for Change in MIC value of meropenem: strain entry 6, Klebsiella pneumoniae NDM-1
Text: as §1

[6] = test system: Klebsiella pneumoniae NDM-1 + DHA + CTX − M-15; test: Meropenem MIC, CLSI broth or agar microdilution, strain entry 7; type: cell-based
[7] = test system: Klebsiella pneumoniae IMP-4; test: Meropenem MIC, CLSI broth or agar microdilution, strain entry 1; type: cell-based
[8] = test system: Pseudomonas aeruginosa VIM-2; test: Meropenem MIC, CLSI broth or agar microdilution, strain entry 5; type: cell-based; settings: for Change in MIC value of meropenem: strain entry 5, Pseudomonas aeruginosa VIM-2
Text: as §1

Sequence of NDM-1 (New Delhi metallo-β-lactamase-1) (C7C422 29-270, looked up, species assumed): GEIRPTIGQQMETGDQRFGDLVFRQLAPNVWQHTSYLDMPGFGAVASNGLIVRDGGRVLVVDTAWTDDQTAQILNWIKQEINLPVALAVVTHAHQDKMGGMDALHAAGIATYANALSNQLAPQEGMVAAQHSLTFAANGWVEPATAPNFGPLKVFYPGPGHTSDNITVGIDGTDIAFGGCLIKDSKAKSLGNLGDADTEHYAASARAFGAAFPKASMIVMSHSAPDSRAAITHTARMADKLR
Sequence of IMP-1 (Imipenemase-1) (P52699 19-246, looked up, species assumed): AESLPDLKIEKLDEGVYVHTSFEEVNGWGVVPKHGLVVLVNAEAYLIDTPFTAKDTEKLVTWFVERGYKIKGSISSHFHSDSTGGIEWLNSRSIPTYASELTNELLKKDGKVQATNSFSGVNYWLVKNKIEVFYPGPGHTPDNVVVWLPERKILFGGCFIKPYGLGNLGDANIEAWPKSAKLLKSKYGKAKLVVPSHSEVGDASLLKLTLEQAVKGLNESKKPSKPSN

| Structure (SMILES) | IC50 [1] | IC50 [2] | IC50 (IMP-1 (Imipenemase-1)) | IC50 [3] | Change in MIC value of meropenem (E. coli VIM-1; 2 mg/L inhibitor) | Change in MIC value of meropenem (E. coli VIM-1; 4 mg/L inhibitor) | Change in MIC value of meropenem (E. coli VIM-1; 8 mg/L inhibitor) | Change in MIC value of meropenem (E. coli IMP-4; 2 mg/L inhibitor) | Change in MIC value of meropenem (E. coli IMP-4; 4 mg/L inhibitor) | Change in MIC value of meropenem (E. coli IMP-4; 8 mg/L inhibitor) | Change in MIC value of meropenem ([4]; 2 mg/L inhibitor) | Change in MIC value of meropenem ([4]; 4 mg/L inhibitor) | Change in MIC value of meropenem ([4]; 8 mg/L inhibitor) | Change in MIC value of meropenem ([5]; 2 mg/L inhibitor) | Change in MIC value of meropenem ([5]; 4 mg/L inhibitor) | Change in MIC value of meropenem ([5]; 8 mg/L inhibitor) | Change in MIC value of meropenem ([6]; 2 mg/L inhibitor) | Change in MIC value of meropenem ([6]; 4 mg/L inhibitor) | Change in MIC value of meropenem ([6]; 8 mg/L inhibitor) | Change in MIC value of meropenem ([7]; 2 mg/L inhibitor) | also measured |
| --- | --- | --- | --- | --- | --- | --- | --- | --- | --- | --- | --- | --- | --- | --- | --- | --- | --- | --- | --- | --- | --- |
| O=C(O)c1cc2scc(Br)c2[nH]1 [Example 3, 3-bromo-4H-thieno[3,2-b]pyrrole-5-carboxylic acid] | > 251000 nM | 126000 nM | > 251000 nM | 15800 nM |  |  |  |  |  |  |  |  |  |  |  |  |  |  |  |  |  |
| O=C(O)c1[nH]c2c(Br)csc2c1-c1ccc(F)cc1 [Example 4, 3-Bromo-6-(4-fluorophenyl)-4H-thieno-[3,2-b]pyrrole-5-carboxylic acid] | 5010 nM | 200 nM | 2510 nM | 316 nM |  |  |  |  |  |  |  |  |  |  |  |  |  |  |  |  |  |
| O=C(O)c1[nH]c2c(-c3ccc(F)cc3)csc2c1-c1ccc(F)cc1 [Example 5, 3,6-Bis(4-fluorophenyl)-4H-thieno-[3,2-b]pyrrole-5-carboxylic acid] | > 39800 nM | 12600 nM | 2510 nM | 10000 nM |  |  |  |  |  |  |  |  |  |  |  |  |  |  |  |  |  |
| CC(C)c1csc2cc(C(=O)O)[nH]c12 [Example 7, 3-isopropyl-4H-thieno[3,2-b]pyrrole-5-carboxylic acid] | > 251000 nM | 39800 nM | > 63100 nM | 20000 nM |  |  |  |  |  |  |  |  |  |  |  |  |  |  |  |  |  |
| O=C(O)c1cc2scc(C3CC3)c2[nH]1 [Example 8, 3-cyclopropyl-4H-thieno[3,2-b]pyrrole-5-carboxylic acid] | > 251000 nM | 126000 nM | > 251000 nM | 39800 nM |  |  |  |  |  |  |  |  |  |  |  |  |  |  |  |  |  |
| CS(=O)(=O)Cc1ccc(-c2c(C(=O)O)[nH]c3c(C4CC4)csc23)cc1Cl [Example 18, 6-(3-chloro-4-((methylsulfonyl)methyl)phenyl)-3-cyclopropyl-4H-thieno[3,2-b]pyrrole-5-carboxylic acid] |  |  |  |  | −1 log2 difference | −1 log2 difference | −1 log2 difference | 0 log2 difference | 0 log2 difference | 0 log2 difference | −3 log2 difference | −2 log2 difference | −3 log2 difference | 0 log2 difference | 0 log2 difference | 0 log2 difference | −2 log2 difference | −2 log2 difference | −2 log2 difference | 0 log2 difference | Change in MIC value of meropenem ([7]; 4 mg/L inhibitor): 0 log2 difference; Change in MIC value of meropenem ([7]; 8 mg/L inhibitor): 0 log2 difference; Change in MIC value of meropenem ([8]; 2 mg/L inhibitor): 0 log2 difference; Change in MIC value of meropenem ([8]; 4 mg/L inhibitor): 0 log2 difference; Change in MIC value of meropenem ([8]; 8 mg/L inhibitor): 0 log2 difference |
| C[C@@H](O)[C@H]1C(=O)N2C(C(=O)O)=C(S[C@@H]3CN[C@H](C(=O)N(C)C)C3)[C@H](C)[C@H]12 [meropenem, reference compound] |  |  |  |  |  |  |  |  |  |  |  |  |  |  |  |  |  |  |  |  | MIC (E. coli VIM-1; Escherichia coli, VIM1, read-out: MER MIC): 0.25 µg/mL (≈ 0.652 µM); MIC ([5]; Klebsiella pneumoniae, NDM1, read-out: MER MIC): > 128 µg/mL; MIC ([8]; Pseudomonas aeruginosa, VIM2, read-out: MER MIC): 32 µg/mL (≈ 83.4 µM) |

Continued by falling IC50 [1], values first:

| IC50 [1] | IC50 [2] | IC50 (IMP-1 (Imipenemase-1)) | IC50 [3] | Change in MIC value of meropenem (E. coli VIM-1; 2 mg/L inhibitor) | Change in MIC value of meropenem (E. coli VIM-1; 4 mg/L inhibitor) | Change in MIC value of meropenem (E. coli VIM-1; 8 mg/L inhibitor) | Change in MIC value of meropenem (E. coli IMP-4; 2 mg/L inhibitor) | Change in MIC value of meropenem (E. coli IMP-4; 4 mg/L inhibitor) | Change in MIC value of meropenem (E. coli IMP-4; 8 mg/L inhibitor) | Change in MIC value of meropenem ([4]; 2 mg/L inhibitor) | Change in MIC value of meropenem ([4]; 4 mg/L inhibitor) | Change in MIC value of meropenem ([4]; 8 mg/L inhibitor) | Change in MIC value of meropenem ([5]; 2 mg/L inhibitor) | Change in MIC value of meropenem ([5]; 4 mg/L inhibitor) | Change in MIC value of meropenem ([5]; 8 mg/L inhibitor) | Change in MIC value of meropenem ([6]; 2 mg/L inhibitor) | Change in MIC value of meropenem ([6]; 4 mg/L inhibitor) | Change in MIC value of meropenem ([6]; 8 mg/L inhibitor) | Change in MIC value of meropenem ([7]; 2 mg/L inhibitor) | Structure (SMILES) | also measured |
| --- | --- | --- | --- | --- | --- | --- | --- | --- | --- | --- | --- | --- | --- | --- | --- | --- | --- | --- | --- | --- | --- |
| 1580 nM | 316 nM | 12600 nM | 50.1 nM |  |  |  |  |  |  |  |  |  |  |  |  |  |  |  |  | CC(=O)Nc1cccc(-c2c(C(=O)O)[nH]c3c(Br)csc23)c1 [Example 9, 6-(3-acetamidophenyl)-3-bromo-4H-thieno[3,2-b]pyrrole-5-carboxylic acid] |  |
| 631 nM | 63.1 nM | 1000 nM | 39.8 nM |  |  |  |  |  |  |  |  |  |  |  |  |  |  |  |  | O=C(O)c1[nH]c2c(Br)csc2c1-c1cc(Cl)cc(Cl)c1 [Example 1, 3-bromo-6-(3,5-dichlorophenyl)-4H-thieno[3,2-b]pyrrole-5-carboxylic acid] |  |
| 631 nM | 39.8 nM | 501 nM | 126 nM | −1 log2 difference | 0 log2 difference | −1 log2 difference | −2 log2 difference | −2 log2 difference | −2 log2 difference | −1 log2 difference | −1 log2 difference | 0 log2 difference | −1 log2 difference | −1 log2 difference | −1 log2 difference | −1 log2 difference | −1 log2 difference | −1 log2 difference | −2 log2 difference | C=C(C)c1csc2c(-c3ccc(F)cc3)c(C(=O)O)[nH]c12 [Example 6, 3-isopropenyl-6-(4-fluorophenyl)-4H-thieno-[3,2-b]pyrrole-5-carboxylic acid] | Change in MIC value of meropenem ([7]; 4 mg/L inhibitor): −2 log2 difference; Change in MIC value of meropenem ([7]; 8 mg/L inhibitor): −2 log2 difference; Change in MIC value of meropenem ([8]; 2 mg/L inhibitor): 0 log2 difference; Change in MIC value of meropenem ([8]; 4 mg/L inhibitor): 0 log2 difference; Change in MIC value of meropenem ([8]; 8 mg/L inhibitor): 0 log2 difference |
| 631 nM | 50.1 nM | 50.1 nM | 39.8 nM | −1 log2 difference | −1 log2 difference | −1 log2 difference | −2 log2 difference | −2 log2 difference | −3 log2 difference | −2 log2 difference | −2 log2 difference | −2 log2 difference | −1 log2 difference | −1 log2 difference | −2 log2 difference | −1 log2 difference | −2 log2 difference | −3 log2 difference | −2 log2 difference | CC(C)c1csc2c(-c3ccc(F)cc3)c(C(=O)O)[nH]c12 [Example 12, 3-isopropyl-6-(4-fluorophenyl)-4H-thieno-[3,2-b]pyrrole-5-carboxylic acid] | Change in MIC value of meropenem ([7]; 4 mg/L inhibitor): −2 log2 difference; Change in MIC value of meropenem ([7]; 8 mg/L inhibitor): −2 log2 difference; Change in MIC value of meropenem ([8]; 2 mg/L inhibitor): 0 log2 difference; Change in MIC value of meropenem ([8]; 4 mg/L inhibitor): 0 log2 difference; Change in MIC value of meropenem ([8]; 8 mg/L inhibitor): 0 log2 difference |
| 126 nM | 15.8 nM | 79.4 nM | 5.01 nM | −1 log2 difference | −1 log2 difference | −1 log2 difference | −2 log2 difference | −2 log2 difference | −3 log2 difference | −2 log2 difference | −2 log2 difference | −2 log2 difference | −1 log2 difference | −1 log2 difference | −2 log2 difference | −1 log2 difference | −2 log2 difference | −3 log2 difference | −2 log2 difference | O=C(O)c1[nH]c2c(C3CC3)csc2c1-c1cc(Cl)cc(Cl)c1 [Example 2, 3-cyclopropyl-6-(3,5-dichlorophenyl)-4H-thieno[3,2-b]pyrrole-5-carboxylic acid] | Change in MIC value of meropenem ([7]; 4 mg/L inhibitor): −2 log2 difference; Change in MIC value of meropenem ([7]; 8 mg/L inhibitor): −2 log2 difference; Change in MIC value of meropenem ([8]; 2 mg/L inhibitor): 0 log2 difference; Change in MIC value of meropenem ([8]; 4 mg/L inhibitor): 0 log2 difference; Change in MIC value of meropenem ([8]; 8 mg/L inhibitor): 0 log2 difference |
